23 compounds from article PMC8911927, “Synthesis and Biological Evaluation of 1-(2-(6-Methoxynaphthalen-2-yl)-6-methylnicotinoyl)-4-Substituted Semicarbazides/Thiosemicarbazides as Anti-Tumor Nur77 Modulators” (Molecules, 2022) can be followed below.

The test system of series [1] is MCF-7 cells. In words: MTT cytotoxicity, MCF-7. It counts as cell-based, human. Particulars: mean values. As to the method:
(§1) All of the cell lines were obtained from the American Type Culture Collection (ATCC, Manassas, VA, USA) and grown in DMEM or RPMI culture medium containing 10% fetal bovine serum (v/v) in 5% CO2 at 37 °C.
(§2) Confluent cells in good state were cultured in 96-well plates (5–10 × 10^4 cells/mL). After cells were attached to the plate, compounds with various concentrations were applied at 37 °C for 72 h. Then, the cells were incubated with 10 μL of 5 mg/mL MTT reagent at 37 °C for 4 h. The supernatant was removed, and the cells were dissolved in 100 μL dimethyl sulfoxide and shaken for 5 min. Finally, the light absorption (OD) of the dissolved cells was measured at […].

Series [2] has as its system HeLa cells. Description: MTT cytotoxicity, HeLa. Type of series: cell-based, human. The conditions noted are these: 72 h, mean values. The procedure:
as §1, §2

Series [3] relates to HGC-27 cells. In words: MTT cytotoxicity, HGC-27. It counts as cell-based, human. Particulars: 72 h, mean values. The procedure:
as §1, §2

Series [4] relates to HGC-27 cells. In words: Flow cytometry cell cycle assay. It counts as cell-based, human. Particulars: 8 h of treatment. The arrangement: dose or concentration left out as unconfirmed. As to the method: Flow cytometry analysis was applied for cell cycle detection. Firstly, HGC-27 cell was adjusted to 1 × 10^6/mL, inoculated into a six-well plate and placed in an incubator at 37 °C containing 5% CO2 saturated humidity overnight. After the cells were fully attached to the plate, […] 9u and 9h were administrated to the cells for 8 h. After cells were collected and fixed with 70% ethanol, DAPI was applied to stain the cells at the final concentration of 1 μg/mL; subsequently, on-board testing by flow cytometry (Cytoflex S (Beckman Coulter, Brea, CA, USA)) was conducted.
A general note: In flow cytometry, cells or beads pass a laser one at a time.

The test system of series [5] is MDA-MB231 cells. Description: MTT cytotoxicity, MDA-MB231. Type of series: cell-based. Particulars: read-out: Cancer Cells IC50, MDA-MB231. The procedure: (§3) All of the cell lines were obtained from the American Type Culture Collection (ATCC, Manassas, VA, USA) and grown in DMEM or RPMI culture medium containing 10% fetal bovine serum (v/v) in 5% CO2 at 37 °C. Confluent cells in good state were cultured in 96-well plates (5–10 × 10^4 cells/mL). After cells were attached to the plate, compounds with various concentrations were applied at 37 °C for 72 h. […] The supernatant was removed, and the cells were dissolved in 100 μL dimethyl sulfoxide and shaken for 5 min.

In series [6] the test system is MRC-5 cells. In words: MTT cytotoxicity, MRC-5 normal cells. It counts as cell-based. The procedure:
as §3

Series [7] deals with H460 cells. Description: MTT cytotoxicity, H460. The conditions noted are these: read-out: Cancer Cells IC50, H460. It counts as cell-based. The procedure:
as §3

Series [8] concerns HGC-27 cells. In words: Colony formation assay. The conditions noted are these: treatment for two weeks, 5 μM and 10 μM, dose-dependent. Type of series: cell-based, human. The procedure:
HGC-27 cells were cultured in a six-well plate (500 cells/well) and treated with 9u and 9h in 10% serum medium for two weeks, then fixed with methanol at room temperature and stained with 0.1% crystal violet, and images were scanned with a scanner.

Series [9] relates to cleaved PARP. Description: Western blot of cleaved PARP. It counts as cell-based, human. The conditions noted are these: HGC-27 cells, different times and concentrations, 24 h. As to the method: Equal amounts of the lysates were electrophoresed on 10% SDS-PAGE gel and transferred onto PVDF membranes. After blocked with 5% nonfat milk in TBST (50 mM Tris-HCl (pH 7.4), 150 mM NaCl and 0.1% Tween 20) for 1 h, the membranes were incubated with various primary antibodies overnight and secondary antibodies for 3 h, finally detected using an ECL system. The blots were captured with ChemiDoc XRS+System (Bio-Rad, Hercules, CA, USA).
For orientation: A western blot detects proteins with antibodies after separation by electrophoresis.

Series [10] relates to A875 cells. In words: MTT cytotoxicity, A875. Type of series: cell-based. The conditions noted are these: read-out: Cancer Cells IC50, A875. As to the method:
as §3

Series [11] relates to A549 cells. Description: MTT cytotoxicity, A549. Particulars: read-out: Cancer Cells IC50, A549. It counts as cell-based. The procedure: as §3
For series [12], the system named is LO2 cells. In words: MTT cytotoxicity, LO2 normal cells. Type of series: cell-based. The procedure:
as §3

Series [13] has as its system HepG2 cells. In words: MTT cytotoxicity, HepG2. Type of series: cell-based. Particulars: read-out: Cancer Cells IC50, HepG2. As to the method: as §3

Take “1-(2-(6-Methoxynaphthalen-2-yl)-6-methylnicotinoyl)-4-(4-methoxyphenyl)semicarbazide [Compound 9g]”: the IC50 stood at 18.4 ± 0.21 µM in series [1] (72 h), 20.2 ± 0.31 µM in series [2] and 19.4 ± 0.63 µM in series [3].
As for “1-(2-(6-Methoxynaphthalen-2-yl)-6-methylnicotinoyl)-4-(4-methoxyphenyl)thiosemicarbazide [Compound 9t]”, the figures for the IC50 in series [1] (72 h), in [2] and in series [3] were 11.4 µM, 10.1 ± 0.61 µM and 16.7 µM, respectively.
For “1-(2-(6-Methoxynaphthalen-2-yl)-6-methylnicotinoyl)-4-m-tolylthiosemicarbazide [Compound 9r]” the same measures were 18.4 ± 0.41 µM, 20.2 ± 0.24 µM and 19.4 ± 0.11 µM.
Take “1-(2-(6-Methoxynaphthalen-2-yl)-6-methylnicotinoyl)-4-o-tolylsemicarbazide [Compound 9d]”: the IC50 in series [1] (72 h) is 35.2 ± 0.6 µM; in [2], 20.7 ± 0.26 µM; in [3], 39.1 ± 0.72 µM.
As for “1-(2-(6-Methoxynaphthalen-2-yl)-6-methylnicotinoyl)-4-o-tolylthiosemicarbazide [Compound 9q]”, the IC50 in [1] (72 h) is 23.3 ± 0.21 µM; in series [2], 14.2 ± 0.22 µM; in series [3] it was 19.4 ± 0.69 µM.
In the same order, the values of “1-(2-(6-Methoxynaphthalen-2-yl)-6-methylnicotinoyl)-4-p-tolylsemicarbazide [Compound 9f]” are 23.3 ± 0.1 µM, 24.2 ± 0.61 µM and 29.4 ± 0.31 µM.
For “1-(2-(6-Methoxynaphthalen-2-yl)-6-methylnicotinoyl)-4-p-tolylthiosemicarbazide [Compound 9s]” the same measures were 19.3 ± 0.3 µM, 16.12 ± 0.07 µM and 10.4 ± 0.19 µM.
In the case of “1-(2-(6-Methoxynaphthalen-2-yl)-6-methylnicotinoyl)-4-phenethylthiosemicarbazide [Compound 9o]”, the IC50 in series [1] (72 h) was 35.2 ± 0.09 µM; in [2], 20.7 ± 0.22 µM; in series [3], 39.12 ± 0.21 µM.
In the same order, the values of “1-(2-(6-Methoxynaphthalen-2-yl)-6-methylnicotinoyl)-4-phenylthiosemicarbazide [Compound 9p]” are 23.34 ± 0.21 µM, 14.7 ± 0.31 µM and 19.24 ± 0.09 µM.
In the same order, the values of “1-(2-(6-methoxynaphthalen-2-yl)-6-methylnicotinoyl)-4-m-tolylsemicarbazide [Compound 9e]” are 33.34 ± 0.12 µM, 24.65 ± 0.24 µM and 49.24 ± 0.26 µM.
In the same order, the values of “4-(2,4-Difluorophenyl)-1-(2-(6-methoxynaphthalen-2-yl)-6-methylnicotinoyl)thiosemicarbazide [Compound 9v]” are 11.6 ± 0.56 µM, 10.1 ± 0.11 µM and 12.4 ± 0.25 µM.
“4-(2-Chlorophenyl)-1-(2-(6-methoxynaphthalen-2-yl)-6-methylnicotinoyl)thiosemicarbazide [Compound 9u]”: the “Effect on cell cycle” value in series [4] is listed as “induced cell cycle blockage in G2-M phase”. The IC50 in series [5] stood at 21 ± 0.01 µM; in [1] (72 h), 6.44 ± 0.07 µM; in [6], 22.1 ± 0.11 µM; in series [7] it was 14 ± 0.38 µM; in series [10] it was 15.7 ± 0.11 µM; in series [11], 11.2 ± 0.46 µM. The IC50 is 6.1 ± 0.5 µM in [2], 41 ± 0.7 µM in series [12], 4.56 ± 0.09 µM in [3] and 7.2 ± 0.11 µM in series [13]. Besides, the “Colony formation of HGC-27 cells” value in [8] is “completely inhibited colony formation”. In series [9], the PARP cleavage result is “induce the PARP cleavage in a dose-dependent and time-dependent manner”.
As for “4-(3,4-Dichlorophenyl)-1-(2-(6-methoxynaphthalen-2-yl)-6-methylnicotinoyl)semicarbazide [Compound 9k]”, the values for the IC50 in series [1] (72 h), in series [2] and in [3] were 11.6 ± 0.45 µM, 10.1 ± 0.69 µM and 12.4 ± 0.5 µM, respectively.
Turning to “4-(3,4-Dichlorophenyl)-1-(2-(6-methoxynaphthalen-2-yl)-6-methylnicotinoyl)thiosemicarbazide [Compound 9w]”, the IC50 was determined as 10.9 ± 0.42 µM in series [1] (72 h), 10.7 ± 0.34 µM in series [2] and 16.4 ± 0.31 µM in series [3].
As to “4-(3,5-Difluorophenyl)-1-(2-(6-methoxynaphthalen-2-yl)-6-methylnicotinoyl)semicarbazide [Compound 9j]”, the IC50 in [1] (72 h) is 16.3 ± 0.34 µM; in series [2], 12.1 ± 0.21 µM; in series [3], 16.6 ± 0.44 µM.
Regarding “4-(3,5-Dimethylphenyl)-1-(2-(6-methoxynaphthalen-2-yl)-6-methylnicotinoyl)semicarbazide [Compound 9i]”, the IC50 in series [1] (72 h) worked out at 21.4 ± 0.25 µM; in [2], 20.1 ± 0.44 µM; in series [3], 19.7 ± 0.31 µM.
Turning to “4-Benzyl-1-(2-(6-methoxynaphthalen-2-yl)-6-methylnicotinoyl)semicarbazide [Compound 9c]”, the IC50 is 21.1 ± 0.52 µM in series [1] (72 h), 25.3 ± 0.45 µM in series [2] and 23.16 ± 0.2 µM in [3].
In the same order, the values of “4-Benzyl-1-(2-(6-methoxynaphthalen-2-yl)-6-methylnicotinoyl)thiosemicarbazide [Compound 9n]” are 21.1 ± 0.32 µM, 25.33 ± 0.1 µM and 23.16 ± 0.07 µM.
For “4-Cyclohexyl-1-(2-(6-methoxynaphthalen-2-yl)-6-methylnicotinoyl)thiosemicarbazide [Compound 9m]” the same measures were 35.4 ± 0.41 µM, 34.5 ± 0.37 µM and 30.2 ± 0.61 µM.
For “4-Cyclopentyl-1-(2-(6-methoxynaphthalen-2-yl)-6-methylnicotinoyl)semicarbazide [Compound 9a]” the same measures were 60.26 ± 0.11 µM, 88.39 ± 0.22 µM and 38.39 ± 0.32 µM.
As for `N.N.[Cl][Pt][Cl]` [Cisplatin, reference compound], the IC50 in series [5] is 20.2 ± 0.25 µM; in [1] (72 h) it was 10.5 ± 0.31 µM; in series [6], more than 50 µM; in [7] it was 16.6 ± 0.09 µM; in series [10] it was 21.2 ± 0.08 µM; in series [11], 9.3 ± 0.11 µM. For the same compound, the IC50 was 12.45 ± 0.11 µM in series [2], more than 50 µM in series [12], 8.9 ± 0.2 µM in series [3] and 15.2 ± 0.29 µM in [13].
Take `COc1ccc2cc(-c3ccc(C(=O)NNC(=O)NC4CCCCC4)c(C)n3)ccc2c1` [Compound 9b]: the melting point is 236 to 237 °C. In addition, in series [1] (Homo sapiens, MCF7, 72 h), the IC50 is 41.5 ± 0.78 µM. The compound further yielded an IC50 in [2] (Homo sapiens) of 30.5 ± 0.4 µM. Further, the IC50 in series [3] (Homo sapiens) is 50.26 ± 0.2 µM.
In the same order, the values of `CCCCCCNC(=S)NNC(=O)c1ccc(C)nc1-c1ccc2cc(OC)ccc2c1` [Compound 9l, 4-Hexyl-1-(2-(6-methoxynaphthalen-2-yl)-6-methylnicotinoyl)thiosemicarbazide] are 195 to 196 °C, 40.2 ± 0.33 µM, 45.4 ± 0.11 µM and 38.1 ± 0.21 µM.

As usually defined, the IC50 is the concentration at which inhibition is half-maximal. Usually melting point stands for the temperature, or range, at which the solid turns liquid.
